{"source": "patent US5762960A", "about": "(Trustees of Tufts College, priority 1996, dated 1998)", "key": {"[1]": {"system": "norepinephrine uptake", "parameters": "Amine Uptakes Blocking Activity Norepinephrine: key to the marks not given beside the values", "conditions": "cited from earlier work; for Amine Uptakes Blocking Activity Norepinephrine: Table 3; for Interaction and blocking activity at the norepinephrine receptor site: in words, text commenting on Table 6"}, "[2]": {"conditions": "cited from earlier work"}, "[3]": {"system": "dopamine receptors", "conditions": "in words, footnote 3 and text on Table 6; cited from earlier work"}, "[4]": {"system": "dopamine uptake", "conditions": "in words, footnote 5 of Table 6; cited from earlier work"}, "[5]": {"system": "canine affective aggression behavior", "experiment": "Case histories: treatment of household dogs exhibiting canine affective aggression", "text": "The clinical diagnosis was affective aggression behavior which was dominance aggression and/fear aggression."}, "[6]": {"conditions": "Table 6, parent compound plus active metabolite"}, "[7]": {"conditions": "Case 4, Cocker Spaniel, orally 25 mg daily, after two months"}}, "note": "Read-outs that look alike come from different tables or passages of the source."}
{"compound": "CN(C)CCC=C1c2ccccc2CCc2ccccc21", "note": "[Amitriptyline]", "values": [{"measurement": "Amine Uptakes Blocking Activity Norepinephrine", "setting": "[1]", "value": "++"}, {"measurement": "Interaction and blocking activity at the norepinephrine receptor site", "setting": "[1]", "value": "modest or slight"}, {"measurement": "Half-life", "setting": "[2]; Table 3", "value": "31 to 46", "unit": "h"}, {"measurement": "Therapeutic Plasma Level", "setting": "[2]; Table 3, marked ^1, footnote printed only under Table 6: parent compound plus active metabolite", "value": "110 to 250", "unit": "ng/mL"}, {"measurement": "Half-life", "setting": "[2]; Table 6", "value": "31 to 46", "unit": "h"}, {"measurement": "Therapeutic plasma level", "setting": "[2]; [6]", "value": "110 to 250", "unit": "ng/mL"}, {"measurement": "Time to Reach Steady State", "setting": "[2]; in vivo", "value": "4 to 10", "unit": "days"}, {"measurement": "Time to reach steady state", "setting": "[2]; in vivo", "value": "4 to 10", "unit": "days"}]}
{"compound": "Clc1ccc2c(c1)C(N1CCNCC1)=Nc1ccccc1O2", "note": "[Amoxapine, amoxapine]", "values": [{"measurement": "Dopamine receptor blockade / interaction", "setting": "[3]", "value": "blocks dopamine receptors"}, {"measurement": "Half-life", "setting": "[2]; human, in vivo", "value": 8, "unit": "h"}, {"measurement": "Therapeutic plasma level", "setting": "[2]; in vivo", "value": "200 to 500", "unit": "ng/mL"}, {"measurement": "Time to reach steady state", "setting": "[2]; in vivo", "value": "2 to 7", "unit": "days"}]}
{"compound": "CC(NC(C)(C)C)C(=O)c1cccc(Cl)c1", "note": "(stereo not drawn) [Bupropion, bupropion]", "values": [{"measurement": "Dopamine uptake inhibition", "setting": "[4]", "value": "Inhibits dopamine uptake"}, {"measurement": "Half-life", "setting": "[2]; Table 6", "value": "8 to 24", "unit": "h"}, {"measurement": "Time to reach steady state", "setting": "[2]; Table 6", "value": "1.5 to 5", "unit": "days"}]}
{"compound": "CN(C)CCCN1c2ccccc2CCc2ccc(Cl)cc21", "note": "[Clomipramine, 3-chloro-10,11-dihydro-N,N-dimethyl-5H-benzo-[b,f]azepine-5-propamine]", "values": [{"measurement": "Owner-noted change in aggressive behavior", "setting": "[5]; Case 1, Australian Shepherd, 25 mg daily, after one week's treatment", "value": "slight improvement"}, {"measurement": "Improvement in aggression behavior", "setting": "[5]; Case 1, Australian Shepherd, 25 mg daily, after several weeks' treatment", "value": "maintained"}, {"measurement": "Owner-rated improvement of behavior", "setting": "[5]; Case 1, Australian Shepherd, 25 mg daily, three weeks after start", "value": "50-75%"}, {"measurement": "Owner rating of behavior", "setting": "[5]; Case 2, Lhasa Apso, dominance and territorial aggression, approx. 1 mg/kg twice a day for one week then approx. […] twice a day, after two weeks", "value": "slightly improved"}, {"measurement": "Persistence of improvement in aggressive behavior", "setting": "[5]; Case 2, Lhasa Apso, through the eight weeks following termination of administration", "value": "sustained"}, {"measurement": "Improvement in behavior", "setting": "[5]; Case 3, German Shepherd, fear and territorial aggression, once a day slightly less than 1 mg/kg, after two weeks", "value": "Moderate improvement"}, {"measurement": "Improvement in behavior", "setting": "[5]; Case 3, German Shepherd, once a day slightly less than 1 mg/kg, eight weeks after initiation", "value": "moderate improvement"}, {"measurement": "Owner-rated improvement in behavior", "setting": "[5]; Case 4, Cocker Spaniel, dominance/fear aggression, orally 25 mg daily, after one week", "value": "25-50%"}, {"measurement": "Owner-reported behavior", "setting": "[5]; Case 4, Cocker Spaniel, orally 25 mg daily, after one month", "value": "much calmer on the street"}, {"measurement": "Improvement in behavior", "setting": "[5]; [7]", "value": "50-75%"}, {"measurement": "Owner-reported behavior", "setting": "[5]; [7]", "value": "essentially non-aggressive"}, {"measurement": "Owner-reported behavior", "setting": "[5]; Case 4, Cocker Spaniel, orally 25 mg daily, after two weeks", "value": "fine in the house"}, {"measurement": "Overall effectiveness for treatment of interspecific affective aggression in dogs", "setting": "[5]; conclusion from the four case histories, no behavior modification therapy", "value": "very effective"}, {"measurement": "Amine Uptakes Blocking Activity Norepinephrine", "setting": "[1]", "value": "++"}, {"measurement": "Interaction and blocking activity at the norepinephrine receptor site", "setting": "[1]", "value": "modest or slight"}, {"measurement": "Therapeutic Plasma Level", "setting": "[2]; in vivo", "value": "80 to 100", "unit": "ng/mL"}, {"measurement": "Therapeutic plasma level", "setting": "[2]; in vivo", "value": "80 to 100", "unit": "ng/mL"}, {"measurement": "Time to Reach Steady State", "setting": "[2]; in vivo", "value": "7 to 14", "unit": "days"}, {"measurement": "Time to reach steady state", "setting": "[2]; in vivo", "value": "7 to 14", "unit": "days"}]}
{"compound": "CNCCCN1c2ccccc2CCc2ccccc21", "note": "[Desipramine, desipramine]", "values": [{"measurement": "Half-life", "setting": "[2]; human, in vivo", "value": "12 to 24", "unit": "h"}, {"measurement": "Therapeutic plasma level", "setting": "[2]; in vivo", "value": "125 to 300", "unit": "ng/mL"}, {"measurement": "Time to reach steady state", "setting": "[2]; in vivo", "value": "2 to 11", "unit": "days"}]}
{"compound": "CN(C)CCC=C1c2ccccc2COc2ccccc21", "note": "[Doxepin, doxepin]", "values": [{"measurement": "Half-life", "setting": "[2]; human, in vivo", "value": "8 to 24", "unit": "h"}, {"measurement": "Time to reach steady state", "setting": "[2]; in vivo", "value": "2 to 8", "unit": "days"}]}
{"compound": "CNCCC(Oc1ccc(C(F)(F)F)cc1)c1ccccc1", "note": "(stereo not drawn) [Fluoxetine, fluoxetine]", "values": [{"measurement": "Time to reach steady state", "setting": "[2]; in vivo", "value": "2-4 weeks"}]}
{"compound": "CN(C)CCCN1c2ccccc2CCc2ccccc21", "note": "[Imipramine, imipramine]", "values": [{"measurement": "Time to reach steady state", "setting": "[2]; in vivo", "value": "2 to 5", "unit": "days"}]}
{"compound": "CNCCCC12CCC(c3ccccc31)c1ccccc12", "note": "[Maprotiline, maprotiline]", "values": [{"measurement": "Time to reach steady state", "setting": "[2]; Table 6", "value": "6 to 10", "unit": "days"}, {"measurement": "Therapeutic plasma level", "setting": "[2]; [6]", "value": "200 to 300", "unit": "ng/mL"}, {"measurement": "Half-life", "setting": "[2]; human, in vivo", "value": "21 to 25", "unit": "h"}]}
{"compound": "CNCCC=C1c2ccccc2CCc2ccccc21", "note": "[Nortriptyline, 3-(10,11-Dihydro-5H-dibenzo[a,d]cyclohepten-5-ylidene)-N-methyl-1-propamine]", "values": [{"measurement": "Half-life", "setting": "[2]; Table 3", "value": "18 to 44", "unit": "h"}, {"measurement": "Time to Reach Steady State", "setting": "[2]; Table 3", "value": "4 to 19", "unit": "days"}, {"measurement": "Half-life", "setting": "[2]; Table 6", "value": "18 to 44", "unit": "h"}, {"measurement": "Time to reach steady state", "setting": "[2]; Table 6", "value": "4 to 19", "unit": "days"}]}
{"compound": "Fc1ccc([C@@H]2CCNC[C@H]2COc2ccc3c(c2)OCO3)cc1", "note": "[Paroxetine, paroxetine]", "values": [{"measurement": "Half-life", "setting": "[2]; Table 6", "value": "10 to 24", "unit": "h"}, {"measurement": "Time to reach steady state", "setting": "[2]; in vivo", "value": "7 to 14", "unit": "days"}]}
{"compound": "CNCCCC1c2ccccc2C=Cc2ccccc21", "note": "[Protriptyline, protriptyline]", "values": [{"measurement": "Half-life", "setting": "[2]; human, in vivo", "value": "67 to 89", "unit": "h"}, {"measurement": "Therapeutic plasma level", "setting": "[2]; in vivo", "value": "100 to 200", "unit": "ng/mL"}, {"measurement": "Time to reach steady state", "setting": "[2]; in vivo", "value": "14 to 19", "unit": "days"}]}
{"compound": "CN[C@H]1CC[C@@H](c2ccc(Cl)c(Cl)c2)c2ccccc21", "note": "[Sertraline, sertraline]", "values": [{"measurement": "Time to reach steady state", "setting": "[2]; in vivo", "value": 7, "unit": "days"}]}
{"compound": "CC(CN(C)C)CN1c2ccccc2CCc2ccccc21", "note": "(stereo not drawn) [Trimipramine, trimipramine]", "values": [{"measurement": "Half-life", "setting": "[2]; Table 6", "value": "7 to 30", "unit": "h"}, {"measurement": "Time to reach steady state", "setting": "[2]; in vivo", "value": "2 to 6", "unit": "days"}]}
{"compound": "CC(C)NCC(O)COc1cccc2ccccc12", "note": "(stereo not drawn) [inclerol]", "values": [{"measurement": "Effect on aggressive behavior", "setting": "[5]; Case 1, Australian Shepherd, 14-year old castrated male, beta-blocker for one week", "value": "only increased his aggressive behavior"}]}
